{"source": "patent US9226916B2", "about": "“Pyrrolidine derivatives” (HOFFMANN-LA ROCHE INC., priority 2009, dated 2016)", "data": [{"biological_target": "T1, recombinant human NK3 receptor (Homo sapiens, UniProt P29371)", "T1 construct": "expressed in transfected cells; host or cells: HEK293 cells, transient expression; membranes", "T1 sequence (P29371 1-465)": "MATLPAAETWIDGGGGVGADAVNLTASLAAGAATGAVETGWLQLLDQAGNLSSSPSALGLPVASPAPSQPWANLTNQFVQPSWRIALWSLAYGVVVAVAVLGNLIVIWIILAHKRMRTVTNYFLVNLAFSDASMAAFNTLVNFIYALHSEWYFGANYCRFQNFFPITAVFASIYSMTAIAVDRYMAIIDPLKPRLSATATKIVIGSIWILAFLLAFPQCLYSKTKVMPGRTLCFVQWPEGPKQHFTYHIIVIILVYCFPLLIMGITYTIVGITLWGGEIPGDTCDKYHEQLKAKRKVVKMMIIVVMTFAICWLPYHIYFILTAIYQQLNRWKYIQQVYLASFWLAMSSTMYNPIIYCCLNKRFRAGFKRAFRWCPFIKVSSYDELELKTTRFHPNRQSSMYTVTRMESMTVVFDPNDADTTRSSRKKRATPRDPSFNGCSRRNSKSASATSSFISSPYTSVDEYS", "test": "[3H]SR142801 competition binding assay", "conditions": "not given", "units": {"Ki": "nM"}, "values": [{"compound": "CN(C(=O)Oc1ccc(F)cc1)[C@@H]1CN(C(=O)C2CCN(C(=O)C3CC3(C)C)CC2)C[C@H]1c1ccc(Cl)cc1", "note": "(stereo partly drawn) [Example 260, {(3S,4R)-4-(4-Chloro-phenyl)-1-[1-(2,2-dimethyl-cyclopropanecarbonyl)-piperidine-4-carbonyl]-pyrrolidin-3-yl}-methyl-carbamic acid 4-fluoro-phenyl ester]", "Ki": 1.5}, {"compound": "CN(C(=O)Oc1ccc(F)cc1)[C@@H]1CN(C(=O)C2CCN(c3cncc(C#N)n3)CC2)C[C@H]1c1ccc(Cl)cc1", "note": "[Example 187, {(3S,4R)-4-(4-Chloro-phenyl)-1-[1-(6-cyano-pyrazin-2-yl)-piperidine-4-carbonyl]-pyrrolidin-3-yl}-methyl-carbamic acid 4-fluoro-phenyl ester]", "Ki": 2.6}, {"compound": "CN(C(=O)Oc1ccc(F)cc1)[C@@H]1CN(C(=O)C2CCN(C(=O)[C@@H]3CC(=O)N3)CC2)C[C@H]1c1ccc(Cl)c(Cl)c1", "note": "[Example 292, {(3S,4R)-4-(3,4-Dichloro-phenyl)-1-[1-((S)-4-oxo-azetidine-2-carbonyl)-piperidine-4-carbonyl]-pyrrolidin-3-yl}-methyl-carbamic acid 4-fluoro-phenyl ester]", "Ki": 0.04}, {"compound": "CN(C(=O)Oc1ccc(F)cc1)[C@@H]1CN(C(=O)C2CCN(C(=O)c3ccc(C(F)(F)F)cn3)CC2)C[C@H]1c1ccc(Cl)c(Cl)c1", "note": "[Example 279, {(3S,4R)-4-(3,4-Dichloro-phenyl)-1-[1-(5-trifluoromethyl-pyridine-2-carbonyl)-piperidine-4-carbonyl]-pyrrolidin-3-yl}-methyl-carbamic acid 4-fluoro-phenyl ester]", "Ki": 2}, {"compound": "CN(C(=O)Oc1ccc(F)cc1)[C@H]1CN(C(=O)C2CCOCC2)C[C@@H]1c1ccc(Cl)c(Cl)c1", "note": "(racemic) [Example 44, rac-[(3R,4S)-4-(3,4-Dichloro-phenyl)-1-(tetrahydro-pyran-4-carbonyl)-pyrrolidin-3-yl]-methyl-carbamic acid 4-fluoro-phenyl ester]", "Ki": 2.9}, {"compound": "CN(C(=O)Oc1ccc(F)cc1)[C@@H]1CN(C(=O)C2CCN(C(=O)C3CCC3)CC2)C[C@H]1c1ccc(Cl)cc1", "note": "[Example 247, [(3S,4R)-4-(4-Chloro-phenyl)-1-(1-cyclobutanecarbonyl-piperidine-4-carbonyl)-pyrrolidin-3-yl]-methyl-carbamic acid 4-fluoro-phenyl ester]", "Ki": 0.9}, {"compound": "CN(C(=O)Oc1ccccc1)[C@H]1CN(C(=O)C2CCN(C(=O)C3(C)CC3)CC2)C[C@@H]1c1ccc(Cl)c(Cl)c1", "note": "(racemic) [Example 13, rac-{(3R,4S)-4-(3,4-Dichloro-phenyl)-1-[1-(1-methyl-cyclopropanecarbonyl)-piperidine-4-carbonyl]-pyrrolidin-3-yl}-methyl-carbamic acid phenyl ester]", "Ki": 2}, {"compound": "CN(C(=O)O[C@H]1CC[C@H](C(F)(F)F)CC1)[C@@H]1CN(C(=O)C2CCN(C3CCOCC3)CC2)CC1c1ccc(Cl)c(Cl)c1", "note": "(stereo in doubt) [Example 123, {(3S,4R)-4-(3,4-Dichloro-phenyl)-1-[1-(tetrahydro-pyran-4-yl)-piperidine-4-carbonyl]-pyrrolidin-3-yl}-methyl-carbamic acid 4-trifluoromethyl-cyclohexyl ester]", "Ki": 2.8}, {"compound": "CN(C(=O)OCCC(C)(C)C)[C@H]1CN(C(=O)C2CCN(C(=O)C3(C)CC3)CC2)C[C@@H]1c1ccc(Cl)c(Cl)c1", "note": "(racemic) [Example 30, rac-{(3R,4S)-4-(3,4-Dichloro-phenyl)-1-[1-(1-methyl-cyclopropanecarbonyl)-piperidine-4-carbonyl]-pyrrolidin-3-yl}-methyl-carbamic acid 3,3-dimethyl-butyl ester]", "Ki": 10.3}, {"compound": "COc1ccc(OC(=O)N(C)[C@H]2CN(C(=O)C3CCN(CC4CC4)CC3)C[C@@H]2c2ccc(Cl)c(Cl)c2)cc1", "note": "[Example 20, [(3R,4S)-1-(1-Cyclopropylmethyl-piperidine-4-carbonyl)-4-(3,4-dichloro-phenyl)-pyrrolidin-3-yl]-methyl-carbamic acid 4-methoxy-phenyl ester]", "Ki": 72.4}, {"compound": "COCC(=O)N1CCC(C(=O)N2C[C@H](c3ccc(Cl)c(Cl)c3)[C@@H](N(C)C(=O)Oc3ccc(F)cc3)C2)CC1", "note": "(racemic) [Example 75, rac-{(3R,4S)-4-(3,4-Dichloro-phenyl)-1-[1-(2-methoxy-acetyl)-piperidine-4-carbonyl]-pyrrolidin-3-yl}-methyl-carbamic acid 4-fluoro-phenyl ester]", "Ki": 0.6}, {"compound": "CN(C(=O)Oc1ccc(F)cc1)[C@H]1CN(C(=O)[C@H]2CC[C@H](O)CC2)C[C@@H]1c1ccc(Cl)c(Cl)c1", "note": "(racemic) [Example 37, rac-[(3R,4S)-4-(3,4-Dichloro-phenyl)-1-(trans-4-hydroxy-cyclohexanecarbonyl)-pyrrolidin-3-yl]-methyl-carbamic acid 4-fluoro-phenyl ester]", "Ki": 0.7}, {"compound": "Cc1cc(OC(=O)N(C)[C@@H]2CN(C(=O)C3CCN(C(=O)C4(C)CC4)CC3)C[C@H]2c2ccc(Cl)c(Cl)c2)cc(C)n1", "note": "[Example 294, {(3S,4R)-4-(3,4-Dichloro-phenyl)-1-[1-(1-methyl-cyclopropanecarbonyl)-piperidine-4-carbonyl]-pyrrolidin-3-yl}-methyl-carbamic acid 2,6-dimethyl-pyridin-4-yl ester]", "Ki": 11.2}, {"compound": "CN(C(=O)Oc1ccc(F)cc1)[C@@H]1CN(C(=O)C2CCN(C(=O)c3ccc(F)cn3)CC2)C[C@H]1c1ccc(Cl)c(Cl)c1", "note": "[Example 280, {(3S,4R)-4-(3,4-Dichloro-phenyl)-1-[1-(5-fluoro-pyridine-2-carbonyl)-piperidine-4-carbonyl]-pyrrolidin-3-yl}-methyl-carbamic acid 4-fluoro-phenyl ester]", "Ki": 0.8}, {"compound": "CN(C(=O)Oc1ccc(F)cc1)[C@@H]1CN(C(=O)C2CCN(c3ccc(C(F)(F)F)cn3)CC2)C[C@H]1c1ccc(Cl)c(Cl)c1", "note": "[Example 306, [(3S,4R)-4-(3,4-Dichloro-phenyl)-1-(5′-trifluoromethyl-3,4,5,6-tetrahydro-2H-[1,2′]bipyridinyl-4-carbonyl)-pyrrolidin-3-yl]-methyl-carbamic acid 4-fluoro-phenyl ester]", "Ki": 0.7}]}, {"biological_target": "T1, recombinant human NK3 receptor", "test": "[3H]SR142801 competition binding assay", "conditions": "hNK-3 receptor affinity; membranes from HEK293 cells transiently expressing recombinant human NK3 receptor; [3H]SR142801; Cheng-Prussoff; read-out: Data Ki", "units": {"Ki": "nM"}, "values": [{"compound": "CN(C(=O)OCCCC(F)(F)F)[C@H]1CN(C(=O)C2CCN(C(=O)C3(C)CC3)CC2)C[C@@H]1c1ccc(Cl)c(Cl)c1", "note": "(racemic) [Example 67, rac-{(3R,4S)-4-(3,4-Dichloro-phenyl)-1-[1-(1-methyl-cyclopropanecarbonyl)-piperidine-4-carbonyl]-pyrrolidin-3-yl}-methyl-carbamic acid 4,4,4-trifluoro-butyl ester]", "Ki": 0.4}]}, {"biological_target": "T1, recombinant human NK3 receptor", "test": "[3H]SR142801 competition binding assay", "conditions": "read-out: Data Ki", "units": {"Ki": "nM"}, "values": [{"compound": "rac-{(3R,4S)-4-(3,4-Dichloro-phenyl)-1-[1-(1-methyl-cyclopropanecarbonyl)-piperidine-4-carbonyl]-pyrrolidin-3-yl}-methyl-carbamic acid (S)-1-(tetrahydro-furan-2-yl)methyl ester and rac-{(3R,4S)-4-(3,4-Dichloro-phenyl)-1-[1-(1-methyl-cyclopropanecarbonyl)-piperidine-4-carbonyl]-pyrrolidin-3-yl}-methyl-carbamic acid (R)-1-(tetrahydro-furan-2-yl)methyl ester [Example 84]", "Ki": 18.3}, {"compound": "CN(C(=O)Oc1cc(F)cc(F)c1)[C@@H]1CN(C(=O)C2CCN(c3ccc(C#N)nc3)CC2)C[C@H]1c1ccc(Cl)cc1", "note": "[Example 210, [(3S,4R)-4-(4-Chloro-phenyl)-1-(6′-cyano-3,4,5,6-tetrahydro-2H-[1,3]bipyridinyl-4-carbonyl)-pyrrolidin-3-yl]-methyl-carbamic acid 3,5-difluoro-phenyl ester]", "Ki": 4.6}]}]}
